Assay results from ChEMBL document CHEMBL2010767, “Agonists for the Chemokine Receptor CXCR4” (ACS Med Chem Lett, 2011).
Activity calls are given as the source filed them. The calls are words filed in the database; no cut-off is given here.

Tests used:
[1] = molecular target: T1, C-X-C chemokine receptor type 4 (Homo sapiens, UniProt P61073); experiment: Antagonist activity at CXCR4 receptor in human REH cells assessed as inhibition of SDF-1alpha-induced chemotactic migration after 3 hrs; type: functional, cell-based
[2] = molecular target: T1, C-X-C chemokine receptor type 4; experiment: Agonist activity at CXCR4 receptor in human REH cells assessed as induction of chemotactic migration at 10 nM after 3 hrs; type: functional, cell-based
[3] = molecular target: T1, C-X-C chemokine receptor type 4; experiment: Displacement of [125I]-SDF-1alpha from human CXCR4 receptor expressed in HEK293 cells after 1 hr by gamma counting; type: cell-based
[4] = molecular target: T1, C-X-C chemokine receptor type 4; experiment: Agonist activity at CXCR4 receptor in human REH cells assessed as induction of chemotactic migration at 10 to 100 nM after 3 hrs; type: functional, cell-based
[5] = molecular target: T1, C-X-C chemokine receptor type 4; experiment: Agonist activity at CXCR4 receptor in human REH cells assessed as induction of chemotactic migration at 1 uM after 3 hrs; type: functional, cell-based

T1 sequence (P61073 whole entry): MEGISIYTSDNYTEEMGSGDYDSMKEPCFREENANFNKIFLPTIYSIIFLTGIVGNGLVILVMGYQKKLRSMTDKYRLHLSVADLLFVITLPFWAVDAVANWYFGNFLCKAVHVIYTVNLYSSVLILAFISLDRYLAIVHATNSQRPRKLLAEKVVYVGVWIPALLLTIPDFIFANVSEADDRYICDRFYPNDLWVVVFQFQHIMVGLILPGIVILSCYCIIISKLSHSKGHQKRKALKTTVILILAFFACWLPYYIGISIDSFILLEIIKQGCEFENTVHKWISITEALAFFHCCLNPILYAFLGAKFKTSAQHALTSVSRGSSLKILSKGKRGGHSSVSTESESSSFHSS

| Compound | Activity [2] | IC50 [3] | also measured |
| --- | --- | --- | --- |
| CC(C)C[C@H](NC(=O)[C@H](CO)NC(=O)[C@@H](NC(=O)[C@@H]1CCCN1C(=O)[C@@H](N)CCCCN)C(C)C)C(=O)N[C@@H](CO)C(=O)N[C@@H](Cc1ccc(O)cc1)C(=O)N[C@@H](CCCNC(=N)N)C(=O)NCCCC[C@@H]1NC(=O)[C@H](CCCNC(=N)N)NC(=O)[C@H](Cc2ccc(O)cc2)NC(=O)[C@@H]2CCCN2C(=O)[C@@H](CCCCN)NC(=O)[C@H](CCCCN)NC(=O)[C@H](CCCNC(=N)N)NC(=O)[C@H](Cc2ccc(O)cc2)NC(=O)[C@@H](NC(=O)[C@H](Cc2ccc3ccccc3c2)NC(=O)[C@H](CCCNC(=N)N)NC(=O)[C@@H](N)CCCNC(=N)N)CSSC[C@@H](C(=O)N[C@@H](CCCNC(=N)N)C(=O)O)CC1=O |  |  | Activity [1]: Active |
| CC(C)C[C@H](NC(=O)[C@H](CO)NC(=O)[C@@H](NC(=O)[C@@H]1CCCN1C(=O)[C@@H](N)CCCCN)C(C)C)C(=O)N[C@@H](CO)C(=O)N[C@@H](Cc1ccc(O)cc1)C(=O)NCCCC[C@H](NC(=O)[C@@H]1CSSC[C@H](NC(=O)[C@H](Cc2ccc3ccccc3c2)NC(=O)[C@H](CCCNC(=N)N)NC(=O)[C@@H](N)CCCNC(=N)N)C(=O)N[C@@H](Cc2ccc(O)cc2)C(=O)N[C@@H](CCCNC(=N)N)C(=O)N[C@@H](CCCCN)C(=O)N[C@H](CCCCN)C(=O)N2CCC[C@H]2C(=O)N[C@@H](Cc2ccc(O)cc2)C(=O)N[C@@H](CCCNC(=N)N)C(=O)N[C@@H](CCCNC(=N)N)C(=O)C1)C(=O)O | Active | 38.6 nM |  |
| CC(C)C[C@H](NC(=O)[C@H](CO)NC(=O)[C@@H](NC(=O)[C@@H]1CCCN1C(=O)[C@@H](N)CCCCN)C(C)C)C(=O)N[C@@H](CO)C(=O)N[C@@H](Cc1ccc(O)cc1)C(=O)N[C@@H](CCCNC(=N)N)C(=O)N[C@@H](CO)C(=O)N1CCC[C@H]1C(=O)NCCCC[C@H](NC(=O)[C@@H]1CSSC[C@H](NC(=O)[C@H](Cc2ccc3ccccc3c2)NC(=O)[C@H](CCCNC(=N)N)NC(=O)[C@@H](N)CCCNC(=N)N)C(=O)N[C@@H](Cc2ccc(O)cc2)C(=O)N[C@@H](CCCNC(=N)N)C(=O)N[C@@H](CCCCN)C(=O)N[C@H](CCCCN)C(=O)N2CCC[C@H]2C(=O)N[C@@H](Cc2ccc(O)cc2)C(=O)N[C@@H](CCCNC(=N)N)C(=O)N[C@@H](CCCNC(=N)N)C(=O)C1)C(=O)O |  | 9.57 nM | Activity [4]: Active |
| CC(C)C[C@H](NC(=O)[C@H](CO)NC(=O)[C@@H](NC(=O)[C@@H]1CCCN1C(=O)[C@@H](N)CCCCN)C(C)C)C(=O)N[C@@H](CO)C(=O)N[C@@H](Cc1ccc(O)cc1)C(=O)NCCCC[C@@H](NC(=O)[C@@H]1CSSC[C@H](NC(=O)[C@H](Cc2ccc3ccccc3c2)NC(=O)[C@H](CCCNC(=N)N)NC(=O)[C@@H](N)CCCNC(=N)N)C(=O)N[C@@H](Cc2ccc(O)cc2)C(=O)N[C@@H](CCCNC(=N)N)C(=O)N[C@@H](CCCCN)C(=O)N[C@H](CCCCN)C(=O)N2CCC[C@H]2C(=O)N[C@@H](Cc2ccc(O)cc2)C(=O)N[C@@H](CCCNC(=N)N)C(=O)N[C@@H](CCCNC(N)=O)C(=O)C1)C(=O)O |  |  | IC50 ([3]; hek293): 170 nM; Activity [5]: Active |
| CC(C)C[C@H](NC(=O)[C@H](CO)NC(=O)[C@@H](NC(=O)[C@@H]1CCCN1C(=O)[C@@H](N)CCCCN)C(C)C)C(=O)N[C@@H](CO)C(=O)N[C@@H](Cc1ccc(O)cc1)C(=O)N[C@@H](CCCNC(=N)N)C(=O)N[C@@H](CO)C(=O)N[C@@H](C)C(=O)NCCCC[C@H](NC(=O)[C@@H]1CSSC[C@H](NC(=O)[C@H](Cc2ccc3ccccc3c2)NC(=O)[C@H](CCCNC(=N)N)NC(=O)[C@@H](N)CCCNC(=N)N)C(=O)N[C@@H](Cc2ccc(O)cc2)C(=O)N[C@@H](CCCNC(=N)N)C(=O)N[C@@H](CCCCN)C(=O)N[C@H](CCCCN)C(=O)N2CCC[C@H]2C(=O)N[C@@H](Cc2ccc(O)cc2)C(=O)N[C@@H](CCCNC(=N)N)C(=O)N[C@@H](CCCNC(=N)N)C(=O)C1)C(=O)O | Active |  |  |
| CC(C)C[C@H](NC(=O)[C@H](CO)NC(=O)[C@@H](NC(=O)[C@@H]1CCCN1C(=O)[C@@H](N)CCCCN)C(C)C)C(=O)N[C@@H](CO)C(=O)N[C@@H](Cc1ccc(O)cc1)C(=O)N[C@@H](CCCNC(=N)N)C(=O)N[C@@H](CO)C(=O)NCCCC[C@H](NC(=O)[C@@H]1CSSC[C@H](NC(=O)[C@H](Cc2ccc3ccccc3c2)NC(=O)[C@H](CCCNC(=N)N)NC(=O)[C@@H](N)CCCNC(=N)N)C(=O)N[C@@H](Cc2ccc(O)cc2)C(=O)N[C@@H](CCCNC(=N)N)C(=O)N[C@@H](CCCCN)C(=O)N[C@H](CCCCN)C(=O)N2CCC[C@H]2C(=O)N[C@@H](Cc2ccc(O)cc2)C(=O)N[C@@H](CCCNC(=N)N)C(=O)N[C@@H](CCCNC(=N)N)C(=O)C1)C(=O)O | Active |  |  |
| CC(C)C[C@H](NC(=O)[C@H](CO)NC(=O)[C@@H](NC(=O)[C@@H]1CCCN1C(=O)[C@@H](N)CCCCN)C(C)C)C(=O)N[C@@H](CO)C(=O)N[C@@H](Cc1ccc(O)cc1)C(=O)NCCCC[C@@H]1NC(=O)[C@H](CCCNC(=N)N)NC(=O)[C@H](Cc2ccc(O)cc2)NC(=O)[C@@H]2CCCN2C(=O)[C@@H](CCCCN)NC(=O)[C@H](CCCCN)NC(=O)[C@H](CCCNC(=N)N)NC(=O)[C@H](Cc2ccc(O)cc2)NC(=O)[C@@H](NC(=O)[C@H](Cc2ccc3ccccc3c2)NC(=O)[C@H](CCCNC(=N)N)NC(=O)[C@@H](N)CCCNC(=N)N)CSSC[C@@H](C(=O)N[C@@H](CCCNC(=N)N)C(=O)O)CC1=O |  | 2.22 nM | Activity [1]: Active |
